Each block holds one substance with its values, some of them ahead of it.
Assays:
[1] = Cholesterol oxidase immobilized on hydrophobin-coated glassy carbon electrode, current response to cholesterol; assay type: biochemical; settings: phosphate buffer pH 7
Description: To overcome the poor solubility of cholesterol in water, the cholesterol was solubilized in isopropanol with Triton in phosphate buffer (Ropers, M.-H. et al., 2001, Phys. Chem. Chem. Phys. 3:240-245).

[2] = Glucose oxidase and peroxidase immobilized on hydrophobin-coated TEFLON sheets, o-dianisidine colour assay at 435 nm; assay type: biochemical; settings: hydrophobin-coated TEFLON sheet (SC3, trSC3, SC4), partner enzyme in solution
Experimental: The coating was achieved by incubating the TEFLON™ at 25° C. in 2 ml of a 100 μg/ml hydrophobin solution (here SC3, trSC3 and SC4 were used in separate experiments) in a 3 ml glass vial for 15 minutes. The sheets were removed from the hydrophobin solution and were washed with large amounts of water to remove any unbound hydrophobin.
Both sheets were placed in a container containing o-dianisidine and, upon addition of glucose, the solution became colored.
The functionalized TEFLON™ is still active after storage for several weeks at 4° C.

[3] = hydrophobin-coated glassy carbon electrode, phosphate buffer pH 7
Experimental: Glassy carbon electrode was coated with hydrophobin by placing the electrode in a solution of hydrophobin (100 μg/ml) and incubating for 15 minutes, after which the electrode was thoroughly rinsed with water.
The electrode, modified and functionalized with the enzyme, was placed in a three electrode system, including an Ag/AgCl reference electrode and a Pt counter electrode, using phosphate buffer pH 7 (25 mM).
The modified electrode was stored in a sealed container, not in liquid, at 4° C., and tested frequently for activity and response to glucose.

[4] = Different enzymes immobilized via SC3 hydrophobin on TEFLON, spectrophotometry at 412 and 435 nm; assay type: biochemical; settings: SC3-coated TEFLON
Experimental: The surface was first coated with SC3 hydrophobin by immersion in the protein aqueous solution (0.3 mg/mL) during approximately 30 minutes. The obtained modified surface was then immersed in an aqueous enzyme solution during approximately 30 minutes. After each step, the TEFLON™ surface was rinsed with an adequate buffer solution. Activity of the immobilized enzymes was followed by spectrophotometry at 412 and 435 nm after immersion of the functionalized surface in the corresponding substrate solution. The optical density of the solution increases after the immersion of the functionalized surface and stays constant after its removal. […] The functionalized TEFLON® was stored at 4° C. in an Eppendorf tube containing a buffer solution.
(Biocatalysts, Wales; final concentration 2.1 mg/mL), lipase from Candida cylindracea (Biocatalysts, Wales; final concentration 0.25 mg/mL), porcine liver esterase (SIGMA; 41 U/mg of solid, final concentration 2.4 mg/mL), bovine pancreas trypsin (SIGMA; 8,750 U/mg of solid).

- activity of immobilized cholesterol oxidase [1]: remaining active
Substance: cholesterol oxidase

- activity of enzyme attached to bare wells: not active
Substance: firefly luciferase: firefly luciferase (Roche, cat no. 411523)

Substance: glucose oxidase
- activity of immobilized enzyme (oxidation of o-dianisidine upon addition of glucose) [2]: absorption at 435 nm was observed
- activity of glucose oxidase upon immobilization on the hydrophobin layer [3]: remained active

- activity of immobilized enzyme (oxidation of o-dianisidine upon addition of glucose) [2]: Coloring of the solution
Substance: peroxidase: horseradish peroxidase (SIGMA)
- state of immobilized enzymes (denaturation, desorption) [4]: not denatured and are not desorbed from the surface
- function after storage ([4]; 4° C. in buffer solution): still functional after several weeks

Source: US20050238685A1, “Method of binding a compound to a surface” (priority 2002, published 2005)
